Test results published in ChEMBL document CHEMBL1126409, “Synthesis and biological activity of nor- and homo-5,10-dideazatetrahydrofolic acid” (Bioorg Med Chem Lett, 1992).
Converted amounts (≈) assume the structure as drawn.

Assays:
CCRF-CEM = test: The compound was tested for its cytotoxicity against CCRF-CEM human leukemic cells using 72 hrs assay; type: functional, cell-based
[1] = target: T1, Trifunctional purine biosynthetic protein adenosine-3 (Mus musculus, UniProt Q64737); test: Inhibitory activity against glycinamide ribonucleotide formyltransferase (GARFT) from L1210 murine leukemic cells; type: cell-based
T1 sequence (Q64737 whole entry): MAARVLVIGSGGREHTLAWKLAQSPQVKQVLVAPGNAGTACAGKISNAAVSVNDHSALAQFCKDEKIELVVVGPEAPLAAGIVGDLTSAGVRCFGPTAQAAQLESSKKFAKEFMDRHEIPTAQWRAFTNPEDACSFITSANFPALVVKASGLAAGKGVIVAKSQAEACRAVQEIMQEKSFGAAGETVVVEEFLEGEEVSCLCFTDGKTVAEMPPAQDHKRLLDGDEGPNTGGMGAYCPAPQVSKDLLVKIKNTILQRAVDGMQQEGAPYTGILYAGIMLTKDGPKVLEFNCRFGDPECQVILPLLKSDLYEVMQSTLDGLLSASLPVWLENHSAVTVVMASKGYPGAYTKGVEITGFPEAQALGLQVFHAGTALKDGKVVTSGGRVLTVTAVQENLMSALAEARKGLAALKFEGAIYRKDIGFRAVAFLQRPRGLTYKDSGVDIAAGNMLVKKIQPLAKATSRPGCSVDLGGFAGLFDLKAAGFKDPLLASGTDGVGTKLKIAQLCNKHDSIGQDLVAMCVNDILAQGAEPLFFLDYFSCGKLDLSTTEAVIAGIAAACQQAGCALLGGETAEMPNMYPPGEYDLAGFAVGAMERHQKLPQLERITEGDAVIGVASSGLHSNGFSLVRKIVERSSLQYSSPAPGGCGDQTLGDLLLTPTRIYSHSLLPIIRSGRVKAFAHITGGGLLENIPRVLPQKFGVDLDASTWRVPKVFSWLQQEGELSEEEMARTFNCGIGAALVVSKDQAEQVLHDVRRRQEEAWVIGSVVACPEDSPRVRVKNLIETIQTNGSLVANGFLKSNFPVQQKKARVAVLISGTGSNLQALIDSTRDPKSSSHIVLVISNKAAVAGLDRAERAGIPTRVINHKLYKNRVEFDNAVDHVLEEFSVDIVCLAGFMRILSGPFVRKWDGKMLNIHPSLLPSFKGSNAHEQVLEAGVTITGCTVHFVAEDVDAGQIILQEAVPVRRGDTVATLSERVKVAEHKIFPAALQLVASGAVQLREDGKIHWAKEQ

Row | Structure (SMILES) | IC50 (CCRF-CEM) | Ki [1]
1 | Nc1nc(O)c2c(n1)NCC(CCCc1ccc(C(=O)N[C@H](CCC(=O)O)C(=O)O)cc1)C2 (stereo not given in full) | 8 ng/mL (≈ 0.0175 µM) | –
2 | Nc1nc(O)c2c(n1)NCC(Cc1ccc(C(=O)N[C@H](CCC(=O)O)C(=O)O)cc1)C2 (stereo not given in full) | 26 ng/mL (≈ 0.0605 µM) | 0.00063 nM
3 | Nc1nc2c(c(=O)[nH]1)C[C@@H](CCc1ccc(C(=O)N[C@@H](CCC(=O)O)C(=O)O)cc1)CN2 [LOMETREXOL] | 7 ng/mL (≈ 0.0158 µM) | 120 nM
